Key:
[1] = biological target: T1, Solute carrier organic anion transporter family member 1B1 (Homo sapiens, UniProt Q9Y6L6); assay: Inhibition of human liver OATP1B1 expressed in HEK293 Flp-In cells assessed as reduction in E17-betaG uptake at 20 uM by scintillation counting; details: hek293, 20 µM
T1 sequence (Q9Y6L6 whole entry): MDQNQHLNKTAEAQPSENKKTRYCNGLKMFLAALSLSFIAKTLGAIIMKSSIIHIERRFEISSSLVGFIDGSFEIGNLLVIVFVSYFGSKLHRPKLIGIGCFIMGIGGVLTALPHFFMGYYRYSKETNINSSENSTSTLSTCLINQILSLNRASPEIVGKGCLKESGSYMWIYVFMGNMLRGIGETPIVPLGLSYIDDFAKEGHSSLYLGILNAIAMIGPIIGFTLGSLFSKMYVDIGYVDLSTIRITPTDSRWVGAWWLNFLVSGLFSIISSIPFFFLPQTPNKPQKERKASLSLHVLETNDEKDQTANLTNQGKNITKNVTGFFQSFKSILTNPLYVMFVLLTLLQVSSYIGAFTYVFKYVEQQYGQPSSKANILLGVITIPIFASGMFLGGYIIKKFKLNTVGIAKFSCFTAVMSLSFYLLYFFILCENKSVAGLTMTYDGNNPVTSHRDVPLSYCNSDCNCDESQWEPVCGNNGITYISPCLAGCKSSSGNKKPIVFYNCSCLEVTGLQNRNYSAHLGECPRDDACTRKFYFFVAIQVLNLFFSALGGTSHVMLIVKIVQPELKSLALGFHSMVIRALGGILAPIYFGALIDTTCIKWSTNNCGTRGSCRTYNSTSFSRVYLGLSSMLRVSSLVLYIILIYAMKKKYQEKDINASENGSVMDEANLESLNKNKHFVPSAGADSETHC

[2] = biological target: T2, Solute carrier organic anion transporter family member 1B3 (Homo sapiens, UniProt Q9NPD5); assay: Inhibition of human liver OATP1B3 expressed in HEK293 Flp-In cells assessed as reduction in [3H]E17-betaG uptake at 20 uM incubated for 5 mins by scintillation counting; details: hek293, 5 min
T2 sequence (Q9NPD5 whole entry): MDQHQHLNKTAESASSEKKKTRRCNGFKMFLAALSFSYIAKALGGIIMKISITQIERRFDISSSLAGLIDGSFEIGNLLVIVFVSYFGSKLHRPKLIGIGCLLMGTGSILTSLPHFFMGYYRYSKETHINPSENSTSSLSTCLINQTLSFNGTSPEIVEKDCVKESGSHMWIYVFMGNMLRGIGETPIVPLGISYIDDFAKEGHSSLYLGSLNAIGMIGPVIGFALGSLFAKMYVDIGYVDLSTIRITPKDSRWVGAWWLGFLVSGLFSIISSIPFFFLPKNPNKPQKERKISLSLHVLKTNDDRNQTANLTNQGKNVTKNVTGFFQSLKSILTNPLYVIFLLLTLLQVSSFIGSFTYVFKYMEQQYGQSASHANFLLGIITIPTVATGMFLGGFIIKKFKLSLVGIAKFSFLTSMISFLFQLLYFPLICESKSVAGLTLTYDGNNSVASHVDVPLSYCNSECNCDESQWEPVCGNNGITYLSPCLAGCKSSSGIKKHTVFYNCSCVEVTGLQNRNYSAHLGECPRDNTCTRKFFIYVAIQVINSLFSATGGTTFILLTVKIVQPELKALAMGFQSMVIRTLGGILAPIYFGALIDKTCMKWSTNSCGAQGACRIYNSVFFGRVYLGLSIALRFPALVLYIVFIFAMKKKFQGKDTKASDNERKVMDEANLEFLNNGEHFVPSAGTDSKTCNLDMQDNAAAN

[3] = biological target: T3, Solute carrier organic anion transporter family member 2B1 (Homo sapiens, UniProt O94956); assay: Inhibition of human liver OATP2B1 expressed in HEK293 Flp-In cells assessed as reduction in [3H]E3S uptake at 20 uM incubated for 5 mins by scintillation counting; details: hek293, 5 min
T3 sequence (O94956 whole entry): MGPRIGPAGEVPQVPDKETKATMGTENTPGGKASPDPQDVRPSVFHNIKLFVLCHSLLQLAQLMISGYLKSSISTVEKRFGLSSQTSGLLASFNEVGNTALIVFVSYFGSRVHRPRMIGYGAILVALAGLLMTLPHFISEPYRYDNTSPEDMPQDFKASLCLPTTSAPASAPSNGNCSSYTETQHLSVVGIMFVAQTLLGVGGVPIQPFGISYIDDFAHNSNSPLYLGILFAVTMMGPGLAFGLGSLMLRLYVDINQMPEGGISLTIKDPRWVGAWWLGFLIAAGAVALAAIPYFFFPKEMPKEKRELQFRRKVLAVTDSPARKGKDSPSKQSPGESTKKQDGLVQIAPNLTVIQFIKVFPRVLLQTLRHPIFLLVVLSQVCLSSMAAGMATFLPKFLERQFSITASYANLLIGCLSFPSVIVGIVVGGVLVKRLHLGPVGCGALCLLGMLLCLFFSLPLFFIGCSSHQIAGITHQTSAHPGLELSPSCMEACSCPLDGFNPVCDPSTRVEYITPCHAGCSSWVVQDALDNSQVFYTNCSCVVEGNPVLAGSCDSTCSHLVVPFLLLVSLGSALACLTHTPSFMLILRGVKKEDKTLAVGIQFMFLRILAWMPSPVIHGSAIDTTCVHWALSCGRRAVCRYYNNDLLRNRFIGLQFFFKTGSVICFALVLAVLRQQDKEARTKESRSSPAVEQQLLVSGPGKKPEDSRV

Compound	INH [1]	INH [2]	INH [3]
CCOc1cc(CC(=O)N[C@@H](CC(C)C)c2ccccc2N2CCCCC2)ccc1C(=O)O [REPAGLINIDE]	88.4%	83.2%	42.2%
CO[C@H]1/C=C/O[C@@]2(C)Oc3c(C)c(O)c4c(O)c(c(/C=N/N5CCN(C)CC5)c(O)c4c3C2=O)NC(=O)/C(C)=C\C=C\[C@H](C)[C@H](O)[C@@H](C)[C@@H](O)[C@@H](C)[C@H](OC(C)=O)[C@@H]1C [RIFAMPIN]	88.3%	101.7%	21.2%
CO[C@H]1/C=C/O[C@@]2(C)Oc3c(C)c(O)c4c(O)c(cc(O)c4c3C2=O)NC(=O)/C(C)=C\C=C\[C@H](C)[C@H](O)[C@@H](C)[C@@H](O)[C@@H](C)[C@H](OC(C)=O)[C@@H]1C [RIFAMYCIN]	95.4%	101.4%	74.8%
CN(CCOc1ccc(CC2SC(=O)NC2=O)cc1)c1ccccn1 (centres undefined) [ROSIGLITAZONE]	79.1%	-32.1%	10%
CC(C)c1nc(N(C)S(C)(=O)=O)nc(-c2ccc(F)cc2)c1/C=C/[C@@H](O)C[C@@H](O)CC(=O)O [ROSUVASTATIN]	71.4%	55.4%	51.2%
CC(C)NCC(O)c1ccc(NS(C)(=O)=O)cc1 (centres undefined) [SOTALOL]	46.4%	6.6%	19%
CC(=O)S[C@@H]1CC2=CC(=O)CC[C@]2(C)[C@H]2CC[C@@]3(C)[C@@H](CC[C@@]34CCC(=O)O4)[C@H]12 [SPIRONOLACTONE]	88.3%	-34.2%	-82%
O=C(O)c1cc(/N=N/c2ccc(S(=O)(=O)Nc3ccccn3)cc2)ccc1O [SULFASALAZINE]	92.1%	72.1%	92.3%
O=C1OC(c2ccc(O)c(S(=O)(=O)[O-])c2)(c2ccc(O)c(S(=O)(=O)[O-])c2)c2c(Br)c(Br)c(Br)c(Br)c21.[Na+].[Na+] [SULFOBROMOPHTHALEIN SODIUM]	94.1%	74.9%	69.3%
C[C@H](CCC(=O)NCCS(=O)(=O)O)[C@H]1CC[C@H]2[C@@H]3[C@H](O)C[C@@H]4C[C@H](O)CC[C@]4(C)[C@H]3CC[C@]12C [TAUROCHENODEOXYCHOLATE]	89.5%	82.4%	47.2%
C[C@H](CCC(=O)NCCS(=O)(=O)O)[C@H]1CC[C@H]2[C@@H]3CC[C@@H]4C[C@H](O)CC[C@]4(C)[C@H]3CC[C@]12C [TAUROLITHOCHOLIC ACID]	97.8%	89.8%	94.6%
C[C@H](Cn1cnc2c(N)ncnc21)OCP(=O)(O)O [TENOFOVIR ANHYDROUS]	18.4%	33.6%	23.3%
CC(C)(C)c1ccc(C(O)CCCN2CCC(C(O)(c3ccccc3)c3ccccc3)CC2)cc1 (centres undefined) [TERFENADINE]	42.7%	33.3%	3.7%
CN(C)[C@@H]1C(O)=C(C(N)=O)C(=O)[C@@]2(O)C(O)=C3C(=O)c4c(O)cccc4[C@@](C)(O)[C@H]3C[C@@H]12 [TETRACYCLINE]	22.1%	29.5%	51.1%
CC[N+](CC)(CC)CC [TETRYLAMMONIUM]	25.9%	4.9%	6.7%
Cn1c(=O)c2[nH]cnc2n(C)c1=O.O [THEOPHYLLINE]	0.8%	2.5%	-25.5%
CSc1ccc2c(c1)N(CCC1CCCCN1C)c1ccccc1S2 (centres undefined) [THIORIDAZINE]	26.1%	25.2%	21.5%

Compound	INH [1]	INH [2]	INH [3]
S=P(N1CC1)(N1CC1)N1CC1 [THIOTEPA]	-40.3%	0.6%	16.2%
Clc1ccccc1CN1CCc2sccc2C1 [TICLOPIDINE]	19.4%	0.2%	23%
CCCCNC(=O)NS(=O)(=O)c1ccc(C)cc1 [TOLBUTAMIDE]	9.1%	5.8%	15.5%
CC[C@@]1(O)C(=O)OCc2c1cc1n(c2=O)Cc2cc3c(CN(C)C)c(O)ccc3nc2-1 [TOPOTECAN]	36.7%	17.3%	-39.2%
Cc1nnc2n1-c1ccc(Cl)cc1C(c1ccccc1Cl)=NC2 [TRIAZOLAM]	45.7%	18.7%	-20.5%
COc1cc(Cc2cnc(N)nc2N)cc(OC)c1OC [TRIMETHOPRIM]	24.7%	18.8%	35.1%
CC(C)C[C@H](NC(=O)[C@@H](O)[C@H](N)Cc1ccccc1)C(=O)O [UBENIMEX]	10.9%	31.8%	20.7%
CC(C)[C@H](N)C(=O)OCCOCn1cnc2c(=O)[nH]c(N)nc21 [VALACYCLOVIR]	8.3%	6.6%	-7.3%
C/C=C/C[C@@H](C)C(=O)[C@H]1C(=O)N[C@@H](C(C)C)C(=O)N(C)CC(=O)N(C)[C@@H](CC(C)C)C(=O)N[C@@H](C(C)C)C(=O)N(C)[C@@H](CC(C)C)C(=O)N[C@@H](C)C(=O)N[C@H](C)C(=O)N(C)[C@@H](CC(C)C)C(=O)N(C)[C@@H](CC(C)C)C(=O)N(C)[C@@H](C(C)C)C(=O)N1C [VALSPODAR]	96.3%	93.9%	33.1%
c1cnc2cc3c(cc2n1)[C@@H]1CNC[C@H]3C1 [VARENICLINE]	24.7%	0.8%	27.3%
CC[C@]1(O)C[C@@H]2CN(CCc3c([nH]c4ccccc34)[C@@](C(=O)OC)(c3cc4c(cc3OC)N(C)[C@H]3[C@@](O)(C(=O)OC)[C@H](OC(C)=O)[C@]5(CC)C=CCN6CC[C@]43[C@@H]65)C2)C1 [VINBLASTINE]	57.6%	54.3%	-9.3%
CC(=O)CC(c1ccccc1)c1c(O)c2ccccc2oc1=O (centres undefined) [WARFARIN]	27.8%	-3.2%	31.6%
Cc1cn([C@H]2C[C@H](N=[N+]=[N-])[C@@H](CO)O2)c(=O)[nH]c1=O [ZIDOVUDINE]	9.5%	7.1%	4.7%
FLUPENTIXOL	30.2%	13.5%	9.5%
IVERMECTIN	64.7%	55.2%	39%
NYSTATIN	69.3%	74.9%	23.4%
